# According to US4300011A, “Selective production of aromatics” (Mobil Oil Corporation, priority 1980, dated 1981):
# Key:
# [1] = Effective critical dimension from CPK space-filling atomic models; format: physicochemical
# From the text: The concept of an "effective critical dimension" of a molecule is described by Breck on pages 633 to 641 in Zeolite Molecular Sieves, John Wiley & Sons, Inc. (1974), the entire contents of which are incorporated herein by reference. Generally, this dimension is the smallest dimension that will permit passage through the pores of the zeolite, i.e., the dimension that most nearly approaches the pore size of the zeolite. For example, the critical dimension of n-hexane is the thickness not the length, while the critical dimension for benzene is the cross-sectional diameter, rather than the thickness.
# Effective critical dimensions for the purposes of this invention were determined by the use of CPK (Corey-Pauling-Koltun) space-filling atomic models, obtained from Ealing Corporation, Natick, Mass. The following Table illustrates critical dimensions measured from such models with corresponding pKa values for several heterocyclic compounds.
# [2] = cited from earlier work; for pKa: from Katritzky, Physical Methods in Heterocyclic Chemistry
SMILES,Effective Critical Dimension [1] [Angstroms],pKa [2],"relative base strength ([2]; versus 1,10-phenanthroline)"
"Cc1ccnc2c(C)cccc12 [4,8-Dimethylquinoline]",7.4,–,–
"c1ccc(-c2ccnc3c2ccc2c(-c4ccccc4)ccnc23)cc1 [Bathophenanthroline, 4,7-diphenyl-1,10-phenanthroline]",9.5,–,–
"Cc1cc(C)c2cccc(C)c2n1 [2,4,8-Trimethylquinoline]",7.9,4.5,–
Cc1nc(C)c(C)c(C)c1C [Pentamethylpyridine],7.7,–,–
"Cc1ccncc1C [3,4-Lutidine, 3,4-dimethylpyridine]",7.0,6.5,–
"c1ccncc1 [Pyridine, reference compound]",6.2,–,–
"Cc1cc(C)c2ccccc2n1 [2,4-Dimethylquinoline]",7.5,5.1,–
"Cc1cccc(C)n1 [2,6-Lutidine]",6.6,6.8,–
"c1ccc2c(c1)ccc1ncccc12 [5,6-Benzoquinoline]",7.5,–,"slightly stronger base than 1,10-phenanthroline"
"Cc1ccc2ccc3ccc(C)nc3c2n1 [Neocuproine, 2,9-dimethyl-1,10-phenanthroline]",8.3,–,–
"c1cnc2c(c1)ccc1cccnc12 [1,10-Phenanthroline]",7.5,–,–
Cc1ccnc2ccccc12 [4-Methylquinoline],7.3,5.2,–
"c1ccc2c(c1)ccc1cccnc12 [7,8-Benzoquinoline]",7.5,–,–
"Cc1cc(C)nc(C)c1 [2,4,6-Collidine, 2,4,6-trimethylpyridine]",7.5,–,–
